Laboratory results as given in ChEMBL document CHEMBL1156829 (Proc Natl Acad Sci U S A, 2008).

Key:
Plasmodium falciparum [1] = assay: NOVARTIS: Inhibition of Plasmodium falciparum 3D7 (drug-susceptible) proliferation in erythrocyte-based infection assay; assay type: functional, organism-based; details: Plasmodium falciparum, 3D7
[2] = NOVARTIS: Cytotoxicity against human hepatocellular carcinoma cell line (Huh7); assay type: toxicity, cell-based, Huh-7; details: Huh7 cells (hepatocellular carcinoma cell line)
Plasmodium falciparum [3] = assay: NOVARTIS: Inhibition of Plasmodium falciparum W2 (drug-resistant) proliferation in erythrocyte-based infection assay; assay type: functional, organism-based; details: Plasmodium falciparum, W2; read-out: EC50

| Compound | EC50 (Plasmodium falciparum [1]) | CC50 [2] | EC50 (Plasmodium falciparum [3]) |
| --- | --- | --- | --- |
| Oc1ccccc1-c1nc2ncccn2c1Nc1cccc(C(F)(F)F)c1 | 2120 nM | > 100000 nM | 1020 nM |
| CCOC(=O)c1cc(S(=O)(=O)NCc2ccc(F)cc2)n[nH]1 | > 847 nM | > 10000 nM | 88.1 nM |
| COc1ccc(NC(=O)Cn2ncc3ccccc32)cc1OC | > 1250 nM | > 100000 nM | 984 nM |
| Cc1ccccc1C(=O)NCCCCNc1ccnc2cc(Cl)ccc12 | 450 nM | > 10000 nM | 479 nM |
| CC(C)N1CCC(N2CCN(Cc3ccc4c(c3)Cc3ccccc3-4)CC2CCO)CC1 (stereo not given) | 1540 nM | 20500 nM | 905 nM |
| Cc1cc(C(=O)N2CCOc3c(cc(-c4csc5ccccc45)cc3OCCc3ccccn3)C2)n(C)n1 | 32.5 nM | 46900 nM | 13.9 nM |
| CC(C)CCNc1ncc(C(=O)NCC(C)C)c(NCCc2ccccc2)n1 | 724 nM | > 10000 nM | 543 nM |
| COC(=O)[C@@H]1C[C@@H](NC(=O)c2ccc(OC)cc2OC)CN1Cc1ccc(C)cc1C | 303 nM | > 100000 nM | 126 nM |
| CCOC(=O)NN=CC=NNC(=O)OCC | 199 nM | > 10000 nM | 235 nM |
| O=C(CCc1ccccc1)NCCCCNc1ccnc2cc(Cl)ccc12 | 142 nM | > 10000 nM | < 13.8 nM |
| CCCCN(CCCC)[P+](N(CCCC)CCCC)(N(CCCC)CCCC)N(CCCC)CCCC | 224 nM | 784 nM | 65.4 nM |
| Cc1c2c(n3c(nc4ccccc43)c1C#N)N(CCN(C)C)CC2 | 419 nM | > 100000 nM | 638 nM |
| CCc1ccc(NC(=O)c2ccc(F)c(S(=O)(=O)NC3CCCC(C)C3C)c2)cc1 (stereo not given) | 1350 nM | 66000 nM | 216 nM |
| CN1CCc2cc3c(c4c2C1Cc1ccccc1-4)OCO3 (stereo not given) [ROEMERINE] | 93.1 nM | 22300 nM | 112 nM |
| Cc1ccc(NC(=O)ON=C2CCCC2)cc1 | 408 nM | 45700 nM | 362 nM |
| COc1cc2c(c(OC)c1CN1CCN(c3ccccc3)CC1)C(=O)c1ccccc1C2=O | 130 nM | > 10000 nM | 166 nM |
| CC[n+]1c(/C=C/c2ccc(Cl)cc2)ccc2ccccc21 | 60.8 nM | > 10000 nM | < 8.16 nM |
| CN(C)c1ccc(NC=CC(=O)C(C)(C)C)cc1 | 1050 nM | 36900 nM | 282 nM |
| Cc1ccc(C(CCNc2ncnc3c2[nH]c2ccccc23)c2ccco2)cc1 (stereo not given) | 736 nM | 19400 nM | 524 nM |
| CCC(c1ccc(F)cc1)n1cc(C(=O)NCCCN2CCC(C)CC2)nn1 (stereo not given) | > 651 nM | > 10000 nM | > 1640 nM |
| CC(C)CC(N)C(=O)NCCCNc1nsc2ccccc12 (stereo not given) | 2820 nM | 15900 nM | > 12100 nM |
| CCOc1ccc(C(=O)C(CCC(C[N+]2(C)CCCCCC2)C(=O)c2ccc(OCC)cc2)C[N+]2(C)CCCCCC2)cc1 (stereo not given) | 615 nM | > 100000 nM | 693 nM |
| O=C(/C=C/c1ccccc1)Nc1ccccc1C(=O)Nc1ccc(-c2nc3ccc(NC(=O)c4ccccc4NC(=O)/C=C/c4ccccc4)cc3[nH]2)cc1 | 347 nM | > 13300 nM | 382 nM |
| Cc1ccc(-c2nc3ncccc3o2)cc1NC(=O)COc1ccc(C(C)(C)C)cc1 | 420 nM | > 100000 nM | 1050 nM |

| Compound | EC50 (Plasmodium falciparum [1]) | CC50 [2] | EC50 (Plasmodium falciparum [3]) |
| --- | --- | --- | --- |
| CC(=NNc1nc(-c2ccccc2O)nc2ccccc12)c1ccccc1O | 742 nM | > 100000 nM | 206 nM |
| O=S(=O)(c1ccc(Cl)cc1)N1CCN(C(=S)NCC2CCCO2)CC1 (stereo not given) | 653 nM | > 100000 nM | 149 nM |
| CCOc1ccc(N2C(=O)NC(=O)/C(=C\c3cn(C(C)=O)c4ccccc34)C2=O)cc1 | > 1250 nM | > 10000 nM | 1860 nM |
| CC1=C(C(=O)OCCC(C)C)C(c2ccccc2)C(C(=O)OCCC(C)C)=C(C)N1 | > 918 nM | > 10000 nM | > 1630 nM |
| O=C(NC(c1ccccc1)c1ccc2cccnc2c1O)c1ccccc1 (stereo not given) | 533 nM | > 100000 nM | 376 nM |
| N#C/C(=C\NC1CCN(Cc2ccccc2)CC1)C(=O)c1cccs1 | 220 nM | > 10000 nM | 1620 nM |
| CCOC(=O)c1nnn(-c2nonc2N)c1-c1ccc(C)cc1 | 304 nM | > 100000 nM | 367 nM |
| O=C(CCl)Nc1ccc(Cl)cc1 | 544 nM | 5700 nM | 342 nM |
| COC(=O)c1ccnn(-c2ccccc2)c1=O | > 1690 nM | 12900 nM | 319 nM |
| Cc1cc(/C=C2\SC(=Nc3ccccc3)NC2=O)c(C)n1-c1cccc([N+](=O)[O-])c1 | 682 nM | > 100000 nM | 897 nM |
| CCc1c2ccc(C)n2cc[n+]1CC | 610 nM | > 100000 nM | 749 nM |
| CC1CN(C(=O)C(Cc2c[nH]c3ccccc23)NC(=O)CCl)CCN1C(=O)Nc1ccccc1 (stereo not given) | 289 nM | > 10000 nM | > 1250 nM |
| COCCOC(=O)C1=C(C)NC2=C(C(=O)CC(c3ccc(OC)cc3)C2)C1c1ccc(F)cc1 (stereo not given) | 161 nM | > 100000 nM | 59 nM |
| Cc1cccc(C(=O)NCc2nnc(S)n2-c2cccc(C(F)(F)F)c2)c1 | 2180 nM | > 100000 nM | 750 nM |
| CCc1nnc2sc(-c3ccc(NC(=O)c4ccc(Br)o4)cc3)nn12 | 5050 nM | > 100000 nM | 833 nM |
| Cc1cc(Nc2ccc(Br)c(C)c2)n2nc(C)nc2n1 | 53 nM | > 100000 nM | 45.8 nM |
| O=C(Cn1cc([N+](=O)[O-])nc1[N+](=O)[O-])N1CCN(c2ccc(F)cc2)CC1 | 1070 nM | 33600 nM | 234 nM |
| O=C(CSc1ccccc1)NCCCCNc1ccnc2cc(Cl)ccc12 | 488 nM | > 10000 nM | 632 nM |
| c1ccc2cc3c(NCCN4CCOCC4)ccnc3cc2c1 | 310 nM | > 10000 nM | 313 nM |
| Cc1ccnc(NC(c2ccc(Cl)cc2Cl)c2ccc3cccnc3c2O)c1 (stereo not given) | 296 nM | 60100 nM | 120 nM |
| CCCOC(=O)C1=C(C)NC2=C(C(=O)CC(c3ccc(OC)c(OC)c3)C2)C1c1cccc(Cl)c1Cl (stereo not given) | 48.4 nM | > 100000 nM | 11.9 nM |
| Clc1ccc2[nH]c3c(NCCCN4CCOCC4)ncnc3c2c1 | 109 nM | 31200 nM | 152 nM |
| COc1cccc(-c2ccc(O)c(CN(C)CC(O)c3ccccc3)c2)n1 (stereo not given) | 246 nM | > 10000 nM | 90.4 nM |
| CCOC(=O)c1c(N)n(-c2ccc(NC(=O)c3cccc([N+](=O)[O-])c3)cc2)c2nc3ccccc3nc12 | 320 nM | 19400 nM | 1740 nM |

| Compound | EC50 (Plasmodium falciparum [1]) | CC50 [2] | EC50 (Plasmodium falciparum [3]) |
| --- | --- | --- | --- |
| CCOC(=O)C1=C(C)NC2=C(C(=O)CCC2)C1c1cc(Br)c(O)c(OCC)c1 (stereo not given) | > 510 nM | > 10000 nM | > 1760 nM |
| CC(C)CN1C(=O)c2ccccc2C(C(=O)Nc2ccc(F)c(Cl)c2)C1c1cccs1 (stereo not given) | 121 nM | > 95200 nM | 120 nM |
| CCN1CCN(c2nc3ccccn3c(=O)c2/C=C2\SC(=S)N(C(C)C)C2=O)CC1 | 717 nM | > 10000 nM | 260 nM |
| CCCCCCCCN[C@@H](C)[C@@H](O)c1ccc(SC(C)C)cc1 | > 1250 nM | > 6250 nM | 413 nM |
| Cc1cc(C)c2nc(NS(=O)(=O)c3cccc(C(=O)O)c3)sc2c1 | 693 nM | > 10000 nM | 1250 nM |
| COc1ccc(N=C2NC(=O)/C(=C\c3ccc(N(C)C)cc3)S2)cc1 | 1020 nM | > 10000 nM | > 1680 nM |
| CCc1ccc2[nH]c(=O)c(CN(CCN(C)C)C(=S)NCCCN(C)C)cc2c1 | 1760 nM | > 10000 nM | > 1460 nM |
| COc1ccc(C2C(C(N)=O)=C(C)Nc3ncnn32)cc1OC (stereo not given) | 380 nM | > 10000 nM | 1150 nM |
| Oc1ccc(-c2nc3ccccc3s2)cc1CN1CCCCC1 | 1140 nM | > 6130 nM | 786 nM |
| Oc1c(C(Nc2ccccn2)c2ccc(Br)cc2)ccc2cccnc12 (stereo not given) | 358 nM | > 100000 nM | 284 nM |
| COc1ccc(Cn2cccc(C(=O)Nc3ccc(OC)cc3)c2=O)cc1 | > 12500 nM | 42500 nM | 3110 nM |
| CC(=O)c1ccc(NC(=O)CN(C)S(=O)(=O)c2ccc3[nH]c4c(c3c2)CCCC4)cc1 | > 12500 nM | 66900 nM | 3580 nM |
| CCOC(=O)C1CCN(C(=S)Nc2ccc3nsnc3c2)CC1 | 347 nM | 30300 nM | 370 nM |
| CC[n+]1c(/C=C/C=C2\N(C)c3ccccc3C2(C)C)n(-c2ccccc2)c2ccc(C)cc21 | 1530 nM | > 10000 nM | 1400 nM |
| CCn1c(N=Nc2ccc(OC)cc2)nc2ccccc21 | 97.5 nM | 13000 nM | 115 nM |
| Cc1cc(C)c2cc(CN(CCN(C)C)C(=S)NCCCN(C)C)c(=O)[nH]c2c1 | 2010 nM | > 100000 nM | 2150 nM |
| O=C(Nc1ccc(C2=NCCN2)cc1)c1ccc(-c2ccc(C(=O)Nc3ccc(C4=NCCN4)cc3)cc2)cc1 | 1320 nM | > 11700 nM | 364 nM |
| CCOC(=O)c1c(CNc2ccncc2)n(C)c2cc(Br)c(OC(C)=O)cc12 | 257 nM | > 100000 nM | 310 nM |
| CC1=CC(=C(C#N)c2nc3ccccc3s2)C=C(C)N1c1ccc2c(c1)OCO2 | 1040 nM | > 100000 nM | 3710 nM |
| COc1cc(-c2nc(-c3cccc(Cl)c3)c(-c3ccccc3)[nH]2)cc(OC)c1O | 583 nM | 43200 nM | 749 nM |
| Cc1cccc(C)c1-n1c(SCc2cccc(F)c2)nc2c(sc(=S)n2-c2c(C)cccc2C)c1=O | 5160 nM | > 100000 nM | 728 nM |
| Cc1sc2c(c1C)CN(Cc1ccco1)CN2C(=O)c1ccco1 | > 12500 nM | > 100000 nM | > 6910 nM |
